Data reported in publication PMC6934184, “Selective DNA-PKcs inhibition extends the therapeutic index of localized radiotherapy and chemotherapy” (The Journal of Clinical Investigation, 2019).

Assays:
[1] = pharmacokinetic analysis in Calu-6 tumor–bearing mice; assay type: in vivo, mouse; details: 30-mg/kg oral dose
Protocol: by determining the absorbance at 570 nm of SRB stain dissolved in Tris base (10 mM, pH 10.5) using a spectrophotometer (BMG Labtech).
In vivo pharmacokinetic analyses
All animal experiments were performed in accordance with the Animals (Scientific Procedures) 1986 Act. 8-9 week old mice were purchased from Charles River Laboratories and housed under specific pathogen-free conditions under 12 hour light/dark cycles.
Female CD-1, CD-1 nude, BALB/c nude and C57BL/6 mice were treated with NU5455 (30 or 100 mg/kg prepared in 1% (v/v) acetic acid or NMP:Encapsin (30% aq):PEG4000 (1:6:3 v/v/v) dosed by oral gavage. Blood samples were collected into heparinized tubes at 15, 30, 60, 180 and 360 minutes post-gavage.
Blood samples were centrifuged at 6700 x g for 3 minutes, the plasma removed and stored at -20°C prior to analysis for drug by HPLC with fluorescence detection. Aliquots of plasma (50 µl) were vigorously vortexed with acetonitrile (450 µl) and the precipitate removed by centrifugation at 6700 x g for 5 minutes. […]
Samples (20 µl) were applied to a 10 x 0.46 cm Genesis C18 4 µm column (Grace Vydac) fitted with an in-line filter. […] Analytes were detected by fluorescence at 390 nm following excitation at 242 nm. Plasma concentrations were determined using linear standard curves (0.01 µM – 10 µM, R2 > 0.98) generated by extracting compounds from […]

DNA-PK = DNA-PK (Homo sapiens, UniProt P78527); experiment: radiation-induced phospho-DNA-PK Ser2056 in MCF7 cells, Western blot; assay type: cell-based; parameters: endogenous in cells; host or cells: MCF7; details: 1 h pretreatment, 30 min after 10 Gy IR, read-out: IC50, radiation-induced activation of DNA-PK (phospho–DNA-PK Ser2056)
Protocol: Exponentially growing MCF7 cells were exposed to a range of concentrations of NU5455 and NU7441 (0.03–10 μM) for 1 hour. To assess the ability of NU5455 and NU7441 to inhibit autophosphorylation of DNA-PKcs at Ser2056, cells were treated with 10 Gy irradiation and incubated for 30 minutes. Alternatively, to investigate the effects of NU5455 and NU7441 against PI3K-dependent phosphorylation of AKT at Ser473, cells were treated with 50 ng/mL insulin-like growth factor-1 (IGF-1; Invitrogen) for 30 minutes. Cell lysates were prepared for the detection of p–DNA-PKcs Ser2056 and total DNA-PKcs, or p–AKT Ser473 and total AKT, respectively, using Western blotting. […]
Protein lysates were quantified using the Pierce BCA Protein Assay (ThermoFisher). […]
Membranes were then washed in TBST and incubated with HRP-conjugated goat anti-mouse or anti-rabbit antibodies (P0447 and P0448 respectively, Dako) in 5% (w/v) milk/TBST at room temperature for 1-2 hours. Conjugates were detected using Clarity Western ECL Substrate (BioRad) and chemiluminescence imaged using the Fuji LAS-3000 Luminescent Image Analyzer System (Fujifilm). […]
Alternatively, basal pAKT Ser473 levels were subtracted from all other pAKT bands, and pAKT band intensity calculated relative to total AKT expression and given as a percentage relative to IGF-1 stimulated, DMSO-treated cells. […]

In the case of `CN(C(=O)CN1CCOCC1)c1ccc2sc3c(-c4cccc5c(=O)cc(N6CC7CCC(C6)O7)oc45)cccc3c2c1` [NU5455], the “period NU5455 concentrations in plasma, lung, tumor, or surrounding skin maintained at approximately 1 μM (0.6 μg/mL or μg/g tissue) or above” value [1] is reported as 3 h and the IC50 (DNA-PK) is reported as 0.168 µM.
